In the test the test system is panel of 14 ER+/HER2− breast cancer cell lines. As to the kind of experiment: 8-day in vitro viability assay, GR (Growth Rate) method. Type of test: cell-based. Particulars: 300 nM. The procedure:
The relationship between ER pathway activity and the anti-proliferative effect of the ER antagonist fulvestrant was explored in a panel of 14 ER+/HER2− breast cancer cell lines. RNA-sequencing data was leveraged to determine the E2-induced score, determined by expression of a set of E2-induced genes (as described above), of a series of ER+/HER2− breast cancer cell lines grown under standard culture conditions, in the presence of estrogen. The effect of ER inhibition by 300 nM fulvestrant on cellular proliferation was determined in an 8-day in vitro viability assay using the GR (Growth Rate) method described by Hafner et al. (Nat Methods 13:6, 2016). The E2-induced score was then plotted against the effect of fulvestrant on cellular growth rate.

For the compound `C[C@]12CC[C@@H]3c4ccc(O)cc4C[C@@H](CCCCCCCCC[S+]([O-])CCCC(F)(F)C(F)(F)F)[C@H]3[C@@H]1CC[C@@H]2O` (some centres unmarked) [Fulvestrant, fulvestrant], the “impact on growth rate” value is recorded as “considerably greater impact” (cell lines exhibiting higher E2-induced scores) and “little impact” (cell lines with E2-induced scores in the lowest 25th percentile (ZR-75-1, MDA-MB-415, MDA-MB-175-VII, KPL-1)).

The values are drawn from patent US11081236B2, “Diagnostic and therapeutic methods for the treatment of breast cancer” (GENENTECH, INC., priority 2018, dated 2021).
